Columns and labels:
Wee1-like protein kinase [1] = target: T1, Wee1-like protein kinase (Homo sapiens, UniProt P30291); assay: Inhibition of human Wee1 (215 to 647 residues) using polyornithine/tyrosine (4:1) as substrate incubated for 5 mins in presence of ATP by micro beta plate reader analysis
Target sequence in this assay (P30291 whole entry, the tested form may be a part): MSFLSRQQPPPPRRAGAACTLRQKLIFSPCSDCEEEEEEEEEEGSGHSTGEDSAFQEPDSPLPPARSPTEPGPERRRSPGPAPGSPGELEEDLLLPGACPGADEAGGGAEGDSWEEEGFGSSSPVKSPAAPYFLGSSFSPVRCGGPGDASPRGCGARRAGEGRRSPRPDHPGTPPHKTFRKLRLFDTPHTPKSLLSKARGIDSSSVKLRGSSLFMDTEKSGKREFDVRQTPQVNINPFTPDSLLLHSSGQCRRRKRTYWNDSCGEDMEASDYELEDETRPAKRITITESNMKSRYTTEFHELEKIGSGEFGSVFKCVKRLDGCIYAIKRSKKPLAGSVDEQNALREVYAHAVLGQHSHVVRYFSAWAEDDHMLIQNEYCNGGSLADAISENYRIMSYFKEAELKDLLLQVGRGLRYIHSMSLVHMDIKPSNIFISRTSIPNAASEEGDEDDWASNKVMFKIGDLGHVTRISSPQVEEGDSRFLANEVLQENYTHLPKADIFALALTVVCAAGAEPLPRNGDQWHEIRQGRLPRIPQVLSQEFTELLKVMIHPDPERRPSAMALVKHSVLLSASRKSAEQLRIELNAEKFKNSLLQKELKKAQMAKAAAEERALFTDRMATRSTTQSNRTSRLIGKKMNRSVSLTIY

A-427 [2] = assay: Antiproliferative activity against human A-427 cells assessed as inhibition of cell growth incubated for 72 hrs by CCK-8 assay; format: functional, cell-based; conditions: A-427, 72 h
[3] = Metabolic stability in human liver microsome assessed as parent compound remaining measured at 60 mins by LCMS/MS analysis; format: ADME; conditions: liver microsomes, read-out: Stability
[4] = Metabolic stability in mouse liver microsome assessed as parent compound remaining measured at 60 mins by LCMS/MS analysis; format: ADME; conditions: liver microsomes, read-out: Stability
[5] = AUC (0 to 24 hrs) in ICR mouse at 1 mg/kg, iv measured upto 24 hrs by LC-MS/MS analysis; format: ADME, organism-based; conditions: in vivo
[6] = Volume of distribution in ICR mouse at 1 mg/kg, iv measured upto 24 hrs by LC-MS/MS analysis; format: ADME, organism-based; conditions: in vivo
[7] = Clearance in ICR mouse at 1 mg/kg, iv measured upto 24 hrs by LC-MS/MS analysis; format: ADME, organism-based; conditions: in vivo
LoVo [8] = assay: Antiproliferative activity against human LoVo cells assessed as inhibition of cell growth incubated for 72 hrs by CCK-8 method; format: functional, cell-based
Wee1-like protein kinase [9] = target: T1, Wee1-like protein kinase; assay: Inhibition of Wee1 in human U2OS cells assessed as reduction in CDK1 phosphorylation measured for 1 hr by Western blot analysis; format: cell-based
Target sequence in this assay (P30291 whole entry, the tested form may be a part): as above

LoVo [10] = assay: Antitumor activity against human LoVo cells xenografted in female BALB/c nude mouse assessed as tumor growth inhibition at 60 mg/kg, IG administered once daily for 27 days; format: functional; conditions: po, 648 h, time 27 day, read-out: TGI
Wee1-like protein kinase [11] = target: T1, Wee1-like protein kinase; assay: Inhibition of Wee1 (unknown origin) at 1 uM relative to control
Target sequence in this assay (P30291 whole entry, looked up, the tested form may be a part): as the sequence (P30291 whole entry, the tested form may be a part) above

[12] = target: T2, Mitogen-activated protein kinase kinase kinase 19 (Homo sapiens) (UniProt Q56UN5); assay: Inhibition of MAP3K19 (unknown origin) at 1 uM relative to control
T2 sequence (whole entry): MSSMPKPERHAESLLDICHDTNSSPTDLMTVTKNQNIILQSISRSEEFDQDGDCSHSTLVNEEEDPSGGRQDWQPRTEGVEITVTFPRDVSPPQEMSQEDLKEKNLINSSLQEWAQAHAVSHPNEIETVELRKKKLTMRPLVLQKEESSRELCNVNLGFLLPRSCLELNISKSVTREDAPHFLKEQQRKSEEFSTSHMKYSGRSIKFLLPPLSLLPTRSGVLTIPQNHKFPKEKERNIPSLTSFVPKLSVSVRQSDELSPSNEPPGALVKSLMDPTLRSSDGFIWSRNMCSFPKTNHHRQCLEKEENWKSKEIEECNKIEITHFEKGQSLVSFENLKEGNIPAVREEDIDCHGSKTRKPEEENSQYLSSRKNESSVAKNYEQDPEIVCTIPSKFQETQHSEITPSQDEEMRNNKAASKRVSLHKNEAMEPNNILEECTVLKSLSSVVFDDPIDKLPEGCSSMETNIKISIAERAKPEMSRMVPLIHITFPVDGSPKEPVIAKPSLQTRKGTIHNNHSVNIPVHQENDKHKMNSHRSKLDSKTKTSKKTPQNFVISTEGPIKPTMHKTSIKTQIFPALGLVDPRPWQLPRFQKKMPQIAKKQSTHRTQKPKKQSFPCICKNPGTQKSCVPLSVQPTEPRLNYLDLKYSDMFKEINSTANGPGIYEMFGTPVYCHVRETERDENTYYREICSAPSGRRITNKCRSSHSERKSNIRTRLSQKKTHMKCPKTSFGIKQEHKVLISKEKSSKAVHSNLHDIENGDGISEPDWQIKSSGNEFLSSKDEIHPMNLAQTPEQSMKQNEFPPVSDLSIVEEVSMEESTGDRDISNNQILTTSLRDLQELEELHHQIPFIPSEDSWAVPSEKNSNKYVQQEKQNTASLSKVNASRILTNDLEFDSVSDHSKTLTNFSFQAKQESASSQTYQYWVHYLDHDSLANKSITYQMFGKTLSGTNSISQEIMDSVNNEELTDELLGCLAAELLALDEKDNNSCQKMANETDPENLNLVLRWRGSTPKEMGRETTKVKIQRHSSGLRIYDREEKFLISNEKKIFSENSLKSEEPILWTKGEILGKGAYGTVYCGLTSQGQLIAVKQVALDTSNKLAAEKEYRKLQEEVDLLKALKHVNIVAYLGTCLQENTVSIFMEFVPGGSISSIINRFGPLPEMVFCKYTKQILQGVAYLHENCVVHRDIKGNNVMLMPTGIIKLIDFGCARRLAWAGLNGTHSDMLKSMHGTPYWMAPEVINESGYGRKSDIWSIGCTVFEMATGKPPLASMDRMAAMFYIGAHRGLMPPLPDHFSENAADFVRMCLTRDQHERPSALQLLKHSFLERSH

A-427 [13] = assay: Induction of apoptosis in human A-427 cells assessed as necrotic cells at 200 nM measured for 48 hrs by Annexin V/PI double staining based flow cytometry analysis (reference value: 0.098%); format: functional
A-427 [14] = assay: Induction of apoptosis in human A-427 cells assessed as early apoptotic cells at 400 nM measured for 48 hrs by Annexin V/PI double staining based flow cytometry analysis (reference value: 1.96%); format: functional
A-427 [15] = assay: Induction of apoptosis in human A-427 cells assessed as early apoptotic cells at 800 nM measured for 48 hrs by Annexin V/PI double staining based flow cytometry analysis (reference value: 1.96%); format: functional
A-427 [16] = assay: Induction of apoptosis in human A-427 cells assessed as late apoptotic cells at 800 nM measured for 48 hrs by Annexin V/PI double staining based flow cytometry analysis (reference value: 0.21%); format: functional
A-427 [17] = assay: Induction of cell cycle arrest in human A-427 cells assessed as accumulation of cells at G2/M phase at 50 nM measured for 48 hrs by flow cytometry analysis (reference value: 10.9 %); format: functional
A-427 [18] = assay: Induction of cell cycle arrest in human A-427 cells assessed as accumulation of cells at G2/M phase at 100 nM measured for 48 hrs by flow cytometry analysis (reference value: 10.9 %); format: functional
A-427 [19] = assay: Induction of cell cycle arrest in human A-427 cells assessed as accumulation of cells at G2/M phase at 200 nM measured for 48 hrs by flow cytometry analysis (reference value: 10.9 %); format: functional
[20] = Acute toxicity in female C57 mouse assessed as reduction in body weight at 2000 mg/kg, IG measured for 14 days; format: organism-based; conditions: in vivo, po, 336 h, time 14 day

C=CCn1c(=O)c2cnc(Nc3ccc(N4CCN(C)CC4)cc3)nc2n1-c1cccc(-c2cnccn2)n1
IC50 (Wee1-like protein kinase [1]): 2.1 nM
IC50 (A-427 [2]): 84 nM
remaining at 1 h [3]: 58.5%
remaining at 1 h [4]: 33.9%
AUC(0-t) at 24 h [5]: 118 ng·h/mL
Vd [6]: 11.3 L/kg
clearance [7]: 137 mL/min/kg
IC50 (LoVo [8]): 82 nM
IC50 (Wee1-like protein kinase [9]): 430 nM
inhibition in vivo at 60 mg/kg (LoVo [10]): 88%
inhibition (Wee1-like protein kinase [11]): 111%
inhibition [12]: > 90%
Activity (A-427 [13]): 4.82%
Activity (A-427 [14]): 10.1%
Activity (A-427 [15]): 10.1%
Activity (A-427 [16]): 35.4%
Activity (A-427 [17]): 6.57%
Activity (A-427 [18]): 7.09%
Activity (A-427 [19]): 6.58%
Activity [20]: Non-Toxic

From ChEMBL document CHEMBL5512688 (J Med Chem, 2024)
